What was measured:
Assay in all cases: relative viability (nuclei count vs DMSO), 5 days (fraction); higher = more cells survive
XMD13-2 + Alpelisib = compound: C1CC1C(=O)NC2=NNC3=C2C=CC(=C3)C4=CC(=CC=C4)C(=O)NC5CC5 [XMD13-2] + Cc1nc(NC(=O)N2CCC[C@H]2C(N)=O)sc1-c1ccnc(C(C)(C)C(F)(F)F)c1 [Alpelisib] (partner 2 µM)
Outline: (§1)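 Five library-drug doses in √10 steps were combined with a fixed anchor-drug dose, or a single drug was given alone, by pin tool to lung cancer cell lines in 1536-well plates the day after seeding. Nuclei were stained and counted after 5 days. Relative viability is the nuclei count in treated wells over that in vehicle wells, taken as the median of duplicate plates.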

ALW-II-49-7 + Foretinib = compound: Cc1ccc(C(=O)Nc2cccc(C(F)(F)F)c2)cc1Nc1cncc(C(N)=O)c1 [ALW-II-49-7] + COc1cc2c(Oc3ccc(NC(=O)C4(C(=O)Nc5ccc(F)cc5)CC4)cc3F)ccnc2cc1OCCCN1CCOCC1 [Foretinib] (partner 0.25 µM)
Outline: as §1

ALW-II-49-7 + Alpelisib = compound: Cc1ccc(C(=O)Nc2cccc(C(F)(F)F)c2)cc1Nc1cncc(C(N)=O)c1 [ALW-II-49-7] + Cc1nc(NC(=O)N2CCC[C@H]2C(N)=O)sc1-c1ccnc(C(C)(C)C(F)(F)F)c1 [Alpelisib] (partner 2 µM)
Outline: as §1

Dasatinib + Decitabine = compound: Cc1nc(Nc2ncc(C(=O)Nc3c(C)cccc3Cl)s2)cc(N2CCN(CCO)CC2)n1 [Dasatinib] + Nc1ncn([C@H]2C[C@H](O)[C@@H](CO)O2)c(=O)n1 [Decitabine] (partner 2 µM)
Outline: as §1

Cell Line	relative viability (XMD13-2 + Alpelisib; first compound 0.05 µM)	relative viability (XMD13-2 + Alpelisib; first compound 0.1581 µM)	relative viability (XMD13-2 + Alpelisib; first compound 0.5 µM)	relative viability (XMD13-2 + Alpelisib; first compound 1.581 µM)	relative viability (XMD13-2 + Alpelisib; first compound 5 µM)	relative viability (ALW-II-49-7 + Foretinib; first compound 0.08 µM)	relative viability (ALW-II-49-7 + Foretinib; first compound 0.253 µM)	relative viability (ALW-II-49-7 + Foretinib; first compound 0.8 µM)	relative viability (ALW-II-49-7 + Foretinib; first compound 2.53 µM)	relative viability (ALW-II-49-7 + Foretinib; first compound 8 µM)	relative viability (ALW-II-49-7 + Alpelisib; first compound 0.08 µM)	relative viability (ALW-II-49-7 + Alpelisib; first compound 0.253 µM)	relative viability (ALW-II-49-7 + Alpelisib; first compound 0.8 µM)	relative viability (ALW-II-49-7 + Alpelisib; first compound 2.53 µM)	relative viability (ALW-II-49-7 + Alpelisib; first compound 8 µM)	relative viability (Dasatinib + Decitabine; first compound 0.005 µM)	relative viability (Dasatinib + Decitabine; first compound 0.01581 µM)	relative viability (Dasatinib + Decitabine; first compound 0.05 µM)	relative viability (Dasatinib + Decitabine; first compound 0.1581 µM)	relative viability (Dasatinib + Decitabine; first compound 0.5 µM)
NCI-H2009	1.23	1.14	1.22	1.15	1.23	1.18	1.31	1.17	0.895	1.11	1.12	1.09	1.12	0.957	0.825	0.403	0.384	0.314	0.216	0.122
NCI-H2023	0.661	0.618	0.52	0.53	0.617	0.841	1.02	0.966	1.02	1.09	0.66	0.575	0.657	0.641	0.677	0.262	0.226	0.216	0.214	0.209
NCI-H2085	0.965	0.946	1.04	0.928	0.98	1.08	0.876	0.989	1.06	1.02	1.03	0.903	0.971	0.895	1.01	0.616	0.424	0.385	0.264	0.25
NCI-H2087	1.14	1.08	1.13	1.05	1.03	1.22	1.12	1.09	1.08	1.04	1.26	1.1	1.09	0.973	0.996	0.301	0.336	0.259	0.145	0.113
NCI-H2126	0.825	0.754	0.754	0.767	0.795	0.805	0.998	1.21	0.998	1.11	0.713	0.723	0.726	0.763	0.738	0.567	0.51	0.553	0.437	0.351
NCI-H2170	0.97	0.77	0.871	0.777	0.696	0.908	1.12	1.01	0.999	1.01	0.723	0.762	0.751	0.867	0.793	0.439	0.422	0.392	0.344	0.225
NCI-H2347	1.04	1.07	1.08	0.92	1.05	1.1	1.04	0.906	0.227	0.844	1.08	0.98	0.986	0.869	0.873	0.562	0.538	0.459	0.322	0.265
NCI-H2405	0.935	0.875	0.807	0.81	0.863	1.03	1.06	0.998	0.847	0.895	0.741	0.829	0.743	0.248	0.753	0.693	0.489	0.45	0.293	0.219
NCI-H3122	0.784	0.678	0.782	0.945	0.819	1.06	0.978	0.96	1.03	0.931	0.824	0.651	0.865	0.873	0.981	0.503	0.476	0.536	0.428	0.33
PC-3 [JPC-3]	1.05	0.983	1.06	1.02	0.936	0.995	1.09	1.01	1.01	1.02	1.02	0.989	0.987	1.09	1.02	0.799	0.802	0.81	0.755	0.623
PC-14	1.01	0.936	1.01	0.931	1.11	0.935	0.634	0.841	0.924	0.89	0.833	0.541	0.838	0.911	0.828	0.301	0.258	0.215	0.186	0.0693
RERF-LC-KJ	0.776	0.902	0.842	0.641	0.91	0.84	0.874	0.941	0.933	0.902	0.785	0.567	0.754	0.745	0.882	0.701	0.621	0.552	0.629	0.627
SK-LU-1	1.3	1.09	1.27	0.945	0.6	0.894	0.895	0.923	0.797	0.592	0.966	1.01	1.11	0.674	0.558	0.609	0.449	0.437	0.282	0.24
SK-MES-1	0.935	0.922	0.869	0.876	1.04	0.834	0.687	0.737	0.977	0.831	0.852	0.802	0.891	0.779	0.753	0.409	0.364	0.265	0.169	0.136
SW 1573	1.03	0.711	1.01	0.676	0.666	0.92	0.729	0.945	1.19	1.02	0.911	0.684	0.914	0.947	0.665	0.431	0.428	0.381	0.288	0.405
